# Results: patent US4719211A, “2,3,4,9-tetrahydro-2-heteroarylalkyl-1H-pyrido(3,4-B)indoles having antihypertensive properties” (American Home Products Corporation, priority 1986, dated 1988)
# pKi: −log10 of the molar value. Where a name gives a salt, the structure may show the parent alone.
# How the values were obtained:
# [1] = system: spontaneously hypertensive rat (SHR); test: Antihypertensive effect: change in systolic blood pressure in spontaneously hypertensive rats (tail plethysmography); type: in vivo
# Method: The systolic blood pressure of male conscious, spontaneously hypertensive rat (SHR) (Taconic Farms) is measured by indirect tail plethysmography using a system designed and built by Narco Bio-Systems-(Model MK-IV). Groups consisting of 4 rats receive a single oral dose of the test compound. Rats are warmed in a heated chamber at 38° C. for 10 minutes prior to measurement of systolic pressure to increase the accuracy of measurements.
# The systolic pressure and heart rate data are collected in an Hewlett Packard 88 computer. Data are grouped and summarized, with the mean change in pressure and heart rate at each time period calculated.
# Unless otherwise noted, the compound was tested in the form in which it was obtained in the example.
# rats = test: Conditioned avoidance response procedure (response lever); type: in vivo; settings: ip, rat, i.p.; for ED50: read-out: AB50 (dose producing 50% block in avoidance responding)
# Method: In conditioned avoidance response type procedures, the effect of the drug on the subject animals previously trained ability to avoid and/or escape a shock is measured. […] If the compound blocks the subject animal's ability to escape the shock, then the compound is judged to have a sedative effect.
# In this procedure, rats trained previously are placed in plexiglass experimental chambers equipped with a response lever, house light, and sonalert. A steel grid floor is wired for presentation of electric shock. Each trial consists of a fifteen-second warning tone (conditioned stimulus), continuing for an additional fifteen seconds accompanied by electric shock, (unconditioned stimulus). The rat can terminate a trial at any point by depression of the response lever. A response during the initial fifteen-second warning tone ends the trial before shock delivery and is considered an avoidance response, while a response occuring during shock delivery is an escape response. Trials are presented on a variable interval schedule of two minutes. The session consists of sixty trials. Animals are run two to three times weekly with control sessions always preceding a drug run, and with at least one day intervening, compounds are administered i.p. (p.o., s.c.) at appropriate pre-treatment times to a minimum of five to six rats at each dose level over a range of doses.
# The following experimental parameters are recorded by computer: (1) the number of intertrial interval responses, (2) the number of avoidance responses, (3) the number of escape responses, and (4) the number of trials in which no response occured.
# Response counts are summed over all subjects at a given dose. […] This number is expressed as a percentage of the total trials. Control performance is assumed to be 100% for avoidance and escape responding and the dose calculated to produce a 50% block in avoidance responding (AB50) is obtained from a dose-effect regression line fitted by the method of least squares. […] If both AB50 's and EB20 's can be calculated, a dose ratio can be determined according to the following formula: […]
# [2] = biological target: T1, limbic D-2 dopamine receptor (Rattus norvegicus, UniProt P61169); test: Inhibition of limbic D-2 dopamine receptor binding (3H-spiroperidol, rat limbic brain homogenate); settings: 0.3 nM 3H-spiroperidol, read-out: Ki (and 95% confidence interval)
# T1 construct: Limbic brain tissue (nucleus accumbens, septal area, olfactory tubercle) is dissected and homogenized on ice; from tissue; host or cells: rat limbic brain tissue (nucleus accumbens, septal area, olfactory tubercle), washed membrane homogenate
# T1 sequence (P61169 whole entry): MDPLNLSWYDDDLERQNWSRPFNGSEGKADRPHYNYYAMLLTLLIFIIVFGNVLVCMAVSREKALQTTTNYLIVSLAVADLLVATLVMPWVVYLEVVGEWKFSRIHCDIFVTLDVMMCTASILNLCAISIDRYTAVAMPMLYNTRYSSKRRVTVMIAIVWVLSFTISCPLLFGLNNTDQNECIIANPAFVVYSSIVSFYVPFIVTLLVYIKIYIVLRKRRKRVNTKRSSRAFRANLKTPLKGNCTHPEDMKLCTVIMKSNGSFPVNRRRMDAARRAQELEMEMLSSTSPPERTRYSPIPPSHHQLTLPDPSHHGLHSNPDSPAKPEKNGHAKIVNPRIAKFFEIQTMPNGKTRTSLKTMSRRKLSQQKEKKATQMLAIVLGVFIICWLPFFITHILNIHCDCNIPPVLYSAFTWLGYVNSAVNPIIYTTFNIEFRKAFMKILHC
# Method: Several rats are decapitated and the brains are rapidly removed. […] The homogenate is then diluted 4-fold with buffer and centrifuged at 30,000×g for 20 min, and the supernatant is discarded. The pellet is resuspended in the same volume of buffer and recentrifuged as before, again discarding the supernatant. This pellet is then resuspended in the same volume of buffer used in the homogenization, and the protein content of this preparation is assayed by the Lowry method. The homogenate is stored frozen at -70° C. until use.
# The vials are then counted in a Packard 460CD scintillation counter.
# Specific binding is defined as total binding less binding in the presence of 1 μM (+)butaclamol. Binding in the presence of various concentrations of test drug is expressed as a percent of specific binding when no drug is present. […] Linear regression analysis then yields a straight line with 95% confidence limits from which an IC50 can be inversely predicted. Ki (inhibition constant) for the test drug is then calculated by the formula: [formula]
# male CF-1 mice = test: Antagonism of apomorphine-induced stereotyped behavior in mice; type: in vivo, mouse; settings: apomorphine 10 mg/kg s.c.
# Method: In the second procedure, the compound's (drug's) abiltiy to antagonize apomorphine-induced stereotyped behavior in mice is measured. In the procedure, 20-25 g male CF-1 mice (Charles River) are tested one week before the experiment for a positive stereotyped response to 10 mg/kg s.c. apomorphine. Test compounds, suspended or solubilized in 0.25% Tween 80 ® in water, are administered at several dose levels to male mice (6/dose level). A control group, run simultaneously with drug groups, receives equal volumes of solvent. Thiry minutes later (i.p. administration) or 60 minutes later (p.o administration), drug-treated and control mice are challenged with 10 mg/kg apomorphine s.c. Five minutes after the injection, the rearing-head-bobbing-licking syndrome induced by apomorphine is recorded as present or absent for each animal. Readings are repeated every 5 minutes during a 30 minute test session. The number of positive or negative 5-minute intervals during which apoomorphine-induced stereotyped behavior is present or absent. ED50 values (with 95% confidence intervals) are calculated for inhibition of apomorphine-inducedstereotyped behavior, by a simple linear regression analysis with inverse prediction.
# [3] = SHR, single oral dose 50 mg/kg, 1.5 hrs.
# [4] = SHR, single oral dose 50 mg/kg, 4 hrs.
# [5] = SHR, single oral dose 10 mg/kg, 1.5 hrs.
# [6] = SHR, single oral dose 10 mg/kg, 4 hrs.
SMILES,"Change in Blood Pressure [1, 3]","Change in Blood Pressure [1, 4]",ED50 (rats),also measured
"Cl.Cl.c1ccc2nc(CN3CCc4c([nH]c5ccccc45)C3)ccc2c1 [2,3,4,9-tetrahydro-2-(2-quinolinylmethyl)-1H-pyrido[3,4-b]-indole, dihydrochloride, reference compound]",–,–,–,"Change in Blood Pressure ([1]; 50 mg/kg, time not stated, did not lower blood pressure significantly): -10 mm Hg"
"c1ccc2c3c([nH]c2c1)CN(Cc1ccncc1)CC3 [Example 1, 2,3,4,9-Tetrahydro-2-(4-Pyridinylmethyl)-1H-Pyrido-[3,4-b]Indole, Dihydrochloride Hemihydrate]",-27 mm of Hg.,-35 mm of Hg.,–,–
"Cl.Cl.c1ccc2c3c([nH]c2c1)CN(CCc1ccncc1)CC3 [Example 2, 2,3,4,9-Tetrahydro-2-[2-(4-Pyridinyl)ethyl]-1H-Pyrido[3,4-b]Indole, Dihydrochloride]",-79 mm of Hg.,-57 mm of Hg.,–,"Change in Blood Pressure [1, 5]: -73 mm of Hg.; Change in Blood Pressure [1, 6]: -30 mm of Hg.; Change in Blood Pressure ([1]; SHR, single oral dose 25 mg/kg, 1.5 hrs.): -18 mm of Hg.; Change in Blood Pressure ([1]; SHR, single oral dose 25 mg/kg, 4 hrs.): -58 mm of Hg."
"Cl.Cl.O.c1ccc2c3c([nH]c2c1)CN(CCCCCCCc1ccncc1)CC3 [Example 3, 2,3,4,9-Tetrahydro-2-[7-(4-Pyridinyl)heptyl]-1H-Pyrido[3,4-b]Indole, Dihydrochloride Hydrate]",-44 mm of Hg.,-58 mm of Hg.,–,–
"Cl.Cl.c1ccc2c3c([nH]c2c1)CN(CCCCc1ccncc1)CC3 [Example 4, 2,3,4,9-Tetrahydro-2-[4-(4-Pyridinyl)butyl]-1H-Pyrido[3,4-b]Indole Dihydrochloride]",-105 mm of Hg.,-115 mm of Hg.,14.1 mg/kg,"Change in Blood Pressure [1, 5]: -43 mm of Hg.; Change in Blood Pressure [1, 6]: -39 mm of Hg."
"Cl.Cl.c1ccc2nc(CCN3CCc4c([nH]c5ccccc45)C3)ccc2c1 [Example 5, 2,3,4,9-Tetrahydro-2-[2-(2-Quinolinyl)ethyl]-1H-Pyrido[3,4-b]Indole Dihydrochloride]",-98 mm of Hg.,-84 mm of Hg.,–,"Change in Blood Pressure [1, 5]: -25 mm of Hg.; minimal effective dose (rats; read-out: dose down to which the avoidance response is blocked in a dose dependant manner): ≤ 15 mg/kg; pKi [2]: 6.78; ED50 (male CF-1 mice; Mus musculus, ip, read-out: ED50 for inhibition of apomorphine-induced stereotyped behavior): 18 mg/kg; ED50 for inhibition of apomorphine-induced stereotyped behavior (male CF-1 mice; i.p., Dihydrochloride): 20.37 mg/kg"
"Cl.Cl.c1ccc2c(CCCCN3CCc4c([nH]c5ccccc45)C3)ccnc2c1 [Example 6, 2,3,4,9-Tetrahydro-2-[4-(4-Quinolinyl)butyl]-1H-Pyrido[3,4-b]Indole, Dihydrochloride]",-94 mm of Hg.,–,–,–
"Cl.Cl.c1ccc2c3c([nH]c2c1)CN(CCc1cnccn1)CC3 [Example 7, 2,3,4,9-Tetrahydro-2-[2-(2Pyrazinyl)ethyl]-1H-Pyrido[3,4-b]Indole, Dihydrochloride]",-110 mm of Hg.,-104 mm of Hg.,–,"Change in Blood Pressure ([1]; SHR, single oral dose 5 mg/kg, 1.5 hrs.): -14 mm of Hg."
"Cl.Cl.c1ccc2nc(CCCCN3CCc4c([nH]c5ccccc45)C3)ccc2c1 [Example 8, 2,3,4,9-Tetrahydro-2-[4-(2-Quinolinyl)butyl]1H-Pyrido[3,4-b]Indole, Dihydrochloride]",–,–,31 mg/kg,–
"c1ccc(CCN2CCc3c([nH]c4ccccc34)C2)nc1 [Example 9, 2,3,4,9-Tetrahydro-2-[2-(2-Pyridinyl)ethyl]-1H-pyrido[3,4-b]-indole, Dihydrochloride.]",–,–,22.6 mg/kg,–
"Cl.Cl.c1cncc(CCCN2CCc3c([nH]c4ccccc34)C2)c1 [Example 13, 2,3,4,9-Tetrahydro-2-[3-(3-Pyridinyl)propyl]1H-pyrido[3,4-b]indole, dihydrochloride]",–,–,20.9 mg/kg,–
